Experimental data as given in US9072698B2, “Method for screening anti-cancer compounds inhibiting function of TM4SF5 and anti-cancer composition containing chalcone compounds” (Seoul National University Industry Foundation, priority 2006, dated 2015).
≈ marks a conversion by molar mass, not a printed value.

How the values were obtained:
Format in all cases: cell-based
[1] = system: HCT15 (colon adenocarcinoma); assay: In vitro cytotoxicity, sulforhodamine B (SRB) method, HCT15; conditions: Homo sapiens; HCT-15, SRB method; read-out: cytotoxicity (ED50) HCT-15
Procedure: (§1) The chalcone derivatives of the present invention were evaluated for in vitro cytotoxicity against human carcinoma cell lines using a sulforhodamine B (SRB) method, which was developed in 1989 by the National Cancer Institute (NCI), USA.
(§2) HCT15 (colon adenocarcinoma; ATCC CCL-225), PC-3 (prostate adenocarcinoma; ATCC CRL-1435), and A-549 (lung carcinoma; ATCC CCL-185) cell lines were used. All of these carcinoma cells were sub-cultured at the Korean Research Institute of Bioscience and Biotechnology (KRIBB), Korea.
(§3) The human carcinoma cell lines were cultured in 10% FCS-containing RPMI 1640 medium (Gibco Cat. No. 31800) in an incubator at 37° C. under 5% CO2, and sub-cultured twice per week.
(§4) Cells were detached from the attached surface using 0.25% Trypsin (Sigma) and 3 mM CDTA (1,2-cyclohexane diamine tetraacetic acid, Sigma) in phosphate buffered saline (PBS, Sigma).
(§5) Compounds to be tested (the chalcone derivatives set forth in Table 1) were dissolved in a small amount of dimethylsulfoxide (DMSO, Sigma), and diluted in culture medium to a desired concentration. The final concentration of DMSO was less than 0.5%. The diluted compounds (final concentration: 30, 10, 3, 1 and 0.3 μg/ml) were sterilized through a 0.22-μm microfilter (Millipore). The cytotoxicity of the compounds to human carcinoma cell lines was assessed using a typical SRB method.

A-549 (lung carcinoma) = assay: In vitro cytotoxicity, sulforhodamine B (SRB) method, A-549; conditions: Homo sapiens, A549; A-549, SRB method; read-out: cytotoxicity (ED50) A-549
Procedure: as §1, §2, §3, §4, §5

[2] = system: PC-3 (prostate adenocarcinoma); assay: In vitro cytotoxicity, sulforhodamine B (SRB) method, PC-3; conditions: Homo sapiens; PC-3, SRB method; read-out: cytotoxicity (ED50) PC-3
Procedure: as §1, §2, §3, §4, §5

Structure (SMILES)	IC50 [1] [µg/mL]	IC50 (A-549 (lung carcinoma)) [µg/mL]	IC50 [2] [µg/mL]
O=C(/C=C/c1ccc(O)cc1)c1ccc(OS(=O)(=O)c2ccc([N+](=O)[O-])cc2)cc1 [Compound 38, 4′-(p-nitrobenzenesulfonate)-4-hydroxychalcone]	52 (≈ 122 µM)	57 (≈ 134 µM)	47 (≈ 110 µM)
Nc1ccc(S(=O)(=O)Oc2ccc(C(=O)/C=C/c3ccc(O)cc3)cc2)cc1 [Compound 39, 4′-(p-aminobenzenesulfonate)-4-hydroxychalcone]	39 (≈ 98.6 µM)	37 (≈ 93.6 µM)	38 (≈ 96.1 µM)
O=C(/C=C/c1ccc(O)cc1)c1ccc(OS(=O)(=O)c2ccccc2)cc1 [Compound 40, 4′-(benzenesulfonate)-4-hydroxychalcone]	31	30	39
CS(=O)(=O)Oc1ccc(C(=O)/C=C/c2ccc(O)cc2)cc1 [Compound 41, 4′-(methanesulfonate)-4-hydroxychalcone]	42	49	48
Cc1ccc(S(=O)(=O)Nc2ccc(C(=O)/C=C/c3ccc(O)c(O)c3)cc2)cc1 [Compound 42, 4′-(p-toluenesulfonylamino)-3,4-dihydroxychalcone]	7 (≈ 17.1 µM)	10 (≈ 24.4 µM)	18 (≈ 44 µM)
Cc1ccc(S(=O)(=O)Nc2ccc(C(=O)/C=C/c3cccc(O)c3O)cc2)cc1 [Compound 43, 4′-(p-toluenesulfonylamino)-2,3-dihydroxychalcone]	12 (≈ 29.3 µM)	18 (≈ 44 µM)	14 (≈ 34.2 µM)
Cc1ccc(S(=O)(=O)Nc2ccc(C(=O)/C=C/c3cc(O)ccc3O)cc2)cc1 [Compound 45, 4′-(p-toluenesulfonylamino)-2,5-dihydroxychalcone]	11 (≈ 26.9 µM)	12 (≈ 29.3 µM)	14 (≈ 34.2 µM)
Cc1ccc(S(=O)(=O)Nc2cccc(C(=O)/C=C/c3ccc(O)c(O)c3)c2)cc1 [Compound 46, 3′-(p-toluenesulfonylamino)-3,4-dihydroxychalcone]	9 (≈ 22 µM)	13 (≈ 31.7 µM)	8 (≈ 19.5 µM)
Cc1ccc(S(=O)(=O)Nc2ccccc2C(=O)/C=C/c2ccc(O)c(O)c2)cc1 [Compound 47, 2′-(p-toluenesulfonylamino)-3,4-dihydroxychalcone]	8 (≈ 19.5 µM)	11 (≈ 26.9 µM)	17 (≈ 41.5 µM)
O=C(/C=C/c1ccc(O)c(O)c1)c1ccc(NS(=O)(=O)c2ccc(O)cc2)cc1 [Compound 48, 4′-(p-hydroxybenzenesulfonylamino)-3,4-dihydroxychalcone]	7 (≈ 17 µM)	8 (≈ 19.4 µM)	11 (≈ 26.7 µM)
O=C(/C=C/c1cccc(O)c1O)c1ccc(NS(=O)(=O)c2ccc(O)cc2)cc1 [Compound 49, 4′-(p-hydroxybenzenesulfonylamino)-2,3-dihydroxychalcone]	8 (≈ 19.4 µM)	6 (≈ 14.6 µM)	14 (≈ 34 µM)
O=C(/C=C/c1ccc(O)cc1O)c1ccc(NS(=O)(=O)c2ccc(O)cc2)cc1 [Compound 50, 4′-(p-hydroxybenzenesulfonylamino)-2,4-dihydroxychalcone]	9 (≈ 21.9 µM)	10 (≈ 24.3 µM)	9 (≈ 21.9 µM)
O=C(/C=C/c1cc(O)ccc1O)c1ccc(NS(=O)(=O)c2ccc(O)cc2)cc1 [Compound 51, 4′-(p-hydroxybenzenesulfonylamino)-2,5-dihydroxychalcone]	6 (≈ 14.6 µM)	13 (≈ 31.6 µM)	11 (≈ 26.7 µM)
O=C(/C=C/c1ccc(O)c(O)c1)c1cccc(NS(=O)(=O)c2ccc(O)cc2)c1 [Compound 52, 3′-(p-hydroxybenzenesulfonylamino)-3,4-dihydroxychalcone]	7 (≈ 17 µM)	6 (≈ 14.6 µM)	5 (≈ 12.2 µM)
O=C(/C=C/c1cccc(O)c1O)c1cccc(NS(=O)(=O)c2ccc(O)cc2)c1 [Compound 53, 3′-(p-hydroxybenzenesulfonylamino)-2,3-dihydroxychalcone]	8 (≈ 19.4 µM)	7 (≈ 17 µM)	8 (≈ 19.4 µM)
O=C(/C=C/c1ccc(O)cc1O)c1cccc(NS(=O)(=O)c2ccc(O)cc2)c1 [Compound 54, 3′-(p-hydroxybenzenesulfonylamino)-2,4-dihydroxychalcone]	7 (≈ 17 µM)	9 (≈ 21.9 µM)	9 (≈ 21.9 µM)
O=C(/C=C/c1cc(O)ccc1O)c1cccc(NS(=O)(=O)c2ccc(O)cc2)c1 [Compound 55, 3′-(p-hydroxybenzenesulfonylamino)-2,5-dihydroxychalcone]	6 (≈ 14.6 µM)	7 (≈ 17 µM)	12 (≈ 29.2 µM)
O=C(/C=C/c1ccc(O)c(O)c1)c1ccccc1NS(=O)(=O)c1ccc(O)cc1 [Compound 56, 2′-(p-hydroxybenzenesulfonylamino)-3,4-dihydroxychalcone]	5 (≈ 12.2 µM)	3 (≈ 7.29 µM)	6 (≈ 14.6 µM)

Structure (SMILES)	IC50 [1] [µg/mL]	IC50 (A-549 (lung carcinoma)) [µg/mL]	IC50 [2] [µg/mL]
O=C(/C=C/c1cccc(O)c1O)c1ccccc1NS(=O)(=O)c1ccc(O)cc1 [Compound 57, 2′-(p-hydroxybenzenesulfonylamino)-2,3-dihydroxychalcone]	9 (≈ 21.9 µM)	7 (≈ 17 µM)	10 (≈ 24.3 µM)
O=C(/C=C/c1ccc(O)cc1O)c1ccccc1NS(=O)(=O)c1ccc(O)cc1 [Compound 58, 2′-(p-hydroxybenzenesulfonylamino)-2,4-dihydroxychalcone]	11 (≈ 26.7 µM)	12 (≈ 29.2 µM)	10 (≈ 24.3 µM)
O=C(/C=C/c1cc(O)ccc1O)c1ccccc1NS(=O)(=O)c1ccc(O)cc1 [Compound 59, 2′-(p-hydroxybenzenesulfonylamino)-2,5-dihydroxychalcone]	9 (≈ 21.9 µM)	13 (≈ 31.6 µM)	20 (≈ 48.6 µM)
O=C(/C=C/c1ccc(O)c(O)c1)c1ccc(NS(=O)(=O)c2cccc(O)c2)cc1 [Compound 60, 4′-(m-hydroxybenzenesulfonylamino)-3,4-dihydroxychalcone]	4 (≈ 9.72 µM)	7 (≈ 17 µM)	8 (≈ 19.4 µM)
O=C(/C=C/c1cccc(O)c1O)c1ccc(NS(=O)(=O)c2cccc(O)c2)cc1 [Compound 61, 4′-(m-hydroxybenzenesulfonylamino)-2,3-dihydroxychalcone]	12 (≈ 29.2 µM)	10 (≈ 24.3 µM)	10 (≈ 24.3 µM)
O=C(/C=C/c1ccc(O)cc1O)c1ccc(NS(=O)(=O)c2cccc(O)c2)cc1 [Compound 62, 4′-(m-hydroxybenzenesulfonylamino)-2,4-dihydroxychalcone]	7 (≈ 17 µM)	12 (≈ 29.2 µM)	8 (≈ 19.4 µM)
O=C(/C=C/c1cc(O)ccc1O)c1ccc(NS(=O)(=O)c2cccc(O)c2)cc1 [Compound 63, 4′-(m-hydroxybenzenesulfonylamino)-2,5-dihydroxychalcone]	8 (≈ 19.4 µM)	10 (≈ 24.3 µM)	14 (≈ 34 µM)
O=C(/C=C/c1ccc(O)c(O)c1)c1cccc(NS(=O)(=O)c2cccc(O)c2)c1 [Compound 64, 3′-(m-hydroxybenzenesulfonylamino)-3,4-dihydroxychalcone]	4 (≈ 9.72 µM)	3 (≈ 7.29 µM)	7 (≈ 17 µM)
O=C(/C=C/c1cccc(O)c1O)c1cccc(NS(=O)(=O)c2cccc(O)c2)c1 [Compound 65, 3′-(m-hydroxybenzenesulfonylamino)-2,3-dihydroxychalcone]	9 (≈ 21.9 µM)	4 (≈ 9.72 µM)	13 (≈ 31.6 µM)
O=C(/C=C/c1ccc(O)cc1O)c1cccc(NS(=O)(=O)c2cccc(O)c2)c1 [Compound 66, 3′-(m-hydroxybenzenesulfonylamino)-2,4-dihydroxychalcone]	11 (≈ 26.7 µM)	11 (≈ 26.7 µM)	13 (≈ 31.6 µM)
O=C(/C=C/c1cc(O)ccc1O)c1cccc(NS(=O)(=O)c2cccc(O)c2)c1 [Compound 67, 3′-(m-hydroxybenzenesulfonylamino)-2,5-dihydroxychalcone]	7 (≈ 17 µM)	14 (≈ 34 µM)	15 (≈ 36.5 µM)
O=C(/C=C/c1ccc(O)c(O)c1)c1ccccc1NS(=O)(=O)c1cccc(O)c1 [Compound 68, 2′-(m-hydroxybenzenesulfonylamino)-3,4-dihydroxychalcone]	6 (≈ 14.6 µM)	8 (≈ 19.4 µM)	10 (≈ 24.3 µM)
O=C(/C=C/c1cccc(O)c1O)c1ccccc1NS(=O)(=O)c1cccc(O)c1 [Compound 69, 2′-(m-hydroxybenzenesulfonylamino)-2,3-dihydroxychalcone]	7 (≈ 17 µM)	8 (≈ 19.4 µM)	16 (≈ 38.9 µM)
O=C(/C=C/c1ccc(O)cc1O)c1ccccc1NS(=O)(=O)c1cccc(O)c1 [Compound 70, 2′-(m-hydroxybenzenesulfonylamino)-2,4-dihydroxychalcone]	8 (≈ 19.4 µM)	9 (≈ 21.9 µM)	11 (≈ 26.7 µM)
O=C(/C=C/c1cc(O)ccc1O)c1ccccc1NS(=O)(=O)c1cccc(O)c1 [Compound 71, 2′-(m-hydroxybenzenesulfonylamino)-2,5-dihydroxychalcone]	12 (≈ 29.2 µM)	7 (≈ 17 µM)	24 (≈ 58.3 µM)
O=C(/C=C/c1ccc(O)c(O)c1)c1ccc(NS(=O)(=O)c2ccc(F)cc2)cc1 [Compound 72, 4′-(p-fluorobenzensulfonylamino)-3,4-dihydroxychalcone]	10 (≈ 24.2 µM)	11 (≈ 26.6 µM)	8 (≈ 19.4 µM)
O=C(/C=C/c1ccc(O)c(O)c1)c1ccc(NS(=O)(=O)c2ccccc2F)cc1 [Compound 74, 4′-(o-fluorobenzensulfonylamino)-3,4-dihydroxychalcone]	8 (≈ 19.4 µM)	11 (≈ 26.6 µM)	14 (≈ 33.9 µM)
